Measured values from US20130165455A1, “TLR AGONISTS” (The Regents of The University of California, priority 2005, published 2013).

Test system: C57BL/6 mice
Test: Serum cytokine levels in C57BL/6 mice after i.v. injection (Luminex)
Type: in vivo
Details: 0.1 micromole SM-360320 or equivalent amount UC-1V150/MSA (500 μg MSA per mouse), FIG. 5
Description: FIGS. 5A, 5B, 5C, and 5D illustrate the increased potency and duration of effect of UC-1V150/MSA. C57BL/6 mice were injected (i.v.) with (A) 0.1 micromole of SM-360320, a TLR7 ligand, or (B) equivalent amount of a TLR7 agonist UC-1V150 (aldehyde-modified SM-360320) or UC-1V150/MSA to 500 μg MSA per mouse. Serum samples were collected at the indicated time points and cytokine levels were analyzed by Luminex. MSA=mouse serum albumin. The effect from the original TLR7 ligand, SM-360320, lasted for only 2 hours whereas UC-1V150/MSA has extended the effect to at least 6 hours.
FIGS. 7A and 7B illustrates an increased potency of UC-1V150/MSA. C57BL/6 mice were i.v. injected with 380 nmole of SM-360320 or UC-1V150, or 500 μg of UC-1V150/MSA (equivalent to 3.8 nmole UC-1V150) per mouse. Serum samples were collected after 2 h and cytokine levels were analyzed by Luminex. To achieve the similar effect, at least 100-fold higher concentration of either UC-1V150 or SM-360320 was required as compared to that of UC-1V150/MSA.

SMILES: COCCOc1nc(N)c2[nH]c(=O)n(Cc3ccccc3)c2n1 [SM-360320]
- duration of effect (serum cytokine levels): 2 h
